Tests used:
[1] = Primary screening of photostability of the CyNA library (time-course fluorescence, 8 h); format: physicochemical; parameters: F/Fo, fluorescent intensity at 8 hours vs 0 hours: unit: %; conditions: 10 μM in HEPES 100 mM pH 7.4, 2% DMSO
Method: As a primary evaluation of photo stability, the decrease in fluorescence intensity of the 80 CyNA compounds was measured (see Table 2). The average decrease in fluorescence intensity after 8 hours of irradiation by a xenon lamp was approximately 18%. A subset of the most photostable compounds (i.e., F/Fo reported in Table 2 was greater than or equal to 95) was examined under stronger irradiation in various buffers.
10-μM CyNA solutions in 100 mM HEPES buffer (pH 7.4) containing 2% DMSO were placed in a 96-well black plate, and fluorescence intensity measurements were recorded every 10 minutes for a total period of 8 hours (excitation-emission: 790-820 nm). A subset of fourteen compounds selected according to their F8h/Fo quotients, quantum yields and maximum relative fluorescence units (RFU) values was further evaluated in a secondary screening

[2] = Absorbance and fluorescence maximum wavelengths and quantum yields of the CyNA library; format: physicochemical; conditions: for λabs, absorbance maximum wavelength / λem, fluorescence maximum wavelength: CyNA library; for φ, quantum yield: in DMSO, Cardiogreen as standard
Method: Since the k values of the different CyNA compounds indicated some dependency on the chemical structure of the amine, the CyNA scaffold was derivatized with a broad range of primary amines (FIGS. 4A-4C). The fluorescence properties of the 80-member CyNA library were measured. The absorption maximum wavelengths ranged from 802 nm to 806 nm, emission maximum wavelengths ranged from 817 nm to 823 nm, and the average quantum yield was approximately 0.10 (Table 2).
All the chemicals (building block amines plus others) and solvents were purchased from Sigma Aldrich, Alfa Aesar, Fluka, MERCK or Acros, and used without further purification. ^1H-NMR and ^13C-NMR spectra were recorded on Bruker Avance 300 NMR and 500 NMR spectrometers, and chemical shifts are expressed in parts per million (ppm). High-resolution mass spectrometry (HRMS) data was recorded on a Micromass VG 7035. Photobleaching experiments were performed using a UVP Blak-Ray® B-100AP high intensity UV lamp (100 W, 365 nm) Spectroscopic and quantum yield data were measured on a SpectraMax M2 spectrophotometer (Molecular Devices), and the data analysis was performed using GraphPrism 5.0. Photobleaching measurements were performed using an Eclipse Ti-U Nikon microscope (filter cube: 750/800) attached to Ti:sappire oscillator that operated in continuous wave mode, and the data was processed using the software NIS-Elements 3.10. In vivo images were taken in an IVIS Spectrum imaging system (Caliper Life Sciences).

Row | SMILES | F/Fo, fluorescent intensity at 8 hours vs 0 hours [1] | max RFU, maximum relative fluorescence units [1] | λabs, absorbance maximum wavelength [2] | λem, fluorescence maximum wavelength [2] | φ, quantum yield [2]
1 | CCCCCCCCCCCN(C(C)=O)C1=C(/C=C/C2=[N+](CCC)c3ccccc3C2(C)C)CCC/C1=C\C=C1\N(CCC)c2ccccc2C1(C)C [CyNA-567] | 100 | 279.2 | 805 nm | 820 nm | 0.14
2 | CCCCCCCCCCCCCN(C(C)=O)C1=C(/C=C/C2=[N+](CCC)c3ccccc3C2(C)C)CCC/C1=C\C=C1\N(CCC)c2ccccc2C1(C)C [CyNA-55] | 100 | 162.3 | 804 nm | 819 nm | 0.13
3 | CCCN1/C(=C/C=C2\CCCC(/C=C/C3=[N+](CCC)c4ccccc4C3(C)C)=C2N(C(C)=O)C2CCN(Cc3ccccc3)CC2)C(C)(C)c2ccccc21 [CyNA-107] | 50 | 275.3 | 803 nm | 820 nm | 0.07
4 | CCCN1/C(=C/C=C2\CCCC(/C=C/C3=[N+](CCC)c4ccccc4C3(C)C)=C2N(Cc2ccc3c(c2)OCO3)C(C)=O)C(C)(C)c2ccccc21 [CyNA-49] | 95 | 851.3 | 804 nm | 818 nm | 0.10
5 | CCCN1/C(=C/C=C2\CCCC(/C=C/C3=[N+](CCC)c4ccccc4C3(C)C)=C2N(C(C)=O)C(C)CCc2ccccc2)C(C)(C)c2ccccc21 (stereo not shown) [CyNA-275] | 62 | 679.8 | 804 nm | 817 nm | 0.14
6 | CCCN1/C(=C/C=C2\CCCC(/C=C/C3=[N+](CCC)c4ccccc4C3(C)C)=C2N(Cc2ccc(C)cc2)C(C)=O)C(C)(C)c2ccccc21 [CyNA-396] | 96 | 736.1 | 804 nm | 820 nm | 0.09
7 | CCCN1/C(=C/C=C2\CCCC(/C=C/C3=[N+](CCC)c4ccccc4C3(C)C)=C2N(CCc2ccc(C)cc2)C(C)=O)C(C)(C)c2ccccc21.[I-] [CyNA-478] | 64 | 121.6 | 805 nm | 821 nm | 0.09
8 | CCCN1/C(=C/C=C2\CCCC(/C=C/C3=[N+](CCC)c4ccccc4C3(C)C)=C2N(Cc2ccc(OC)cc2OC)C(C)=O)C(C)(C)c2ccccc21 [CyNA-181] | 66 | 996.8 | 805 nm | 821 nm | 0.14
9 | CCCN1/C(=C/C=C2\CCCC(/C=C/C3=[N+](CCC)c4ccccc4C3(C)C)=C2N(Cc2cc(OC)c(OC)c(OC)c2)C(C)=O)C(C)(C)c2ccccc21 [CyNA-356] | 83 | 892.3 | 804 nm | 820 nm | 0.12
10 | CCCN1/C(=C/C=C2\CCCC(/C=C/C3=[N+](CCC)c4ccccc4C3(C)C)=C2N(CCc2ccc(CC)cc2)C(C)=O)C(C)(C)c2ccccc21 [CyNA-201] | 33 | 52.6 | 803 nm | 820 nm | 0.08
11 | CCCN1/C(=C/C=C2\CCCC(/C=C/C3=[N+](CCC)c4ccccc4C3(C)C)=C2N(CCN2CCOCC2)C(C)=O)C(C)(C)c2ccccc21 [CyNA-282] | 90 | 820.1 | 805 nm | 819 nm | 0.09
12 | CCCN1/C(=C/C=C2\CCCC(/C=C/C3=[N+](CCC)c4ccccc4C3(C)C)=C2N(CCCCc2ccccc2)C(C)=O)C(C)(C)c2ccccc21 [CyNA-131] |  | 259.8 | 804 nm | 819 nm | 0.13
13 | CCCN1/C(=C/C=C2\CCCC(/C=C/C3=[N+](CCC)c4ccccc4C3(C)C)=C2N(Cc2ccc(Cl)cc2Cl)C(C)=O)C(C)(C)c2ccccc21 [CyNA-531] | 100 | 187.5 | 804 nm | 820 nm | 0.08
14 | CCCN1/C(=C/C=C2\CCCC(/C=C/C3=[N+](CCC)c4ccccc4C3(C)C)=C2N(Cc2ccc(Cl)c(Cl)c2)C(C)=O)C(C)(C)c2ccccc21 [CyNA-565] | 96 | 335.5 | 805 nm | 821 nm | 0.09
15 | CCCN1/C(=C/C=C2\CCCC(/C=C/C3=[N+](CCC)c4ccccc4C3(C)C)=C2N(Cc2c(F)cccc2F)C(C)=O)C(C)(C)c2ccccc21 [CyNA-80] | 93 | 734.9 | 804 nm | 817 nm | 0.08
16 | CCCN1/C(=C/C=C2\CCCC(/C=C/C3=[N+](CCC)c4ccccc4C3(C)C)=C2N(CCc2ccccc2-c2ccccc2)C(C)=O)C(C)(C)c2ccccc21 [CyNA-599] |  | 105.9 | 805 nm | 819 nm | 0.07
17 | CCCN1/C(=C/C=C2\CCCC(/C=C/C3=[N+](CCC)c4ccccc4C3(C)C)=C2N(Cc2cccc(OC)c2)C(C)=O)C(C)(C)c2ccccc21 [CyNA-387] | 75 | 739.9 | 804 nm | 820 nm | 0.07
18 | CCCN1/C(=C/C=C2\CCCC(/C=C/C3=[N+](CCC)c4ccccc4C3(C)C)=C2N(C(C)=O)C2CCCC2)C(C)(C)c2ccccc21 [CyNA-180] | 91 | 991.3 | 805 nm | 821 nm | 0.14
19 | CCCN1/C(=C/C=C2\CCCC(/C=C/C3=[N+](CCC)c4ccccc4C3(C)C)=C2N(CC(c2ccccc2)c2ccccc2)C(C)=O)C(C)(C)c2ccccc21 [CyNA-548] |  | 67.6 | 804 nm | 820 nm | 0.04
20 | CCCN1/C(=C/C=C2\CCCC(/C=C/C3=[N+](CCC)c4ccccc4C3(C)C)=C2N(Cc2cccc(OC)c2OC)C(C)=O)C(C)(C)c2ccccc21 [CyNA-124] | 100 | 1334.2 | 803 nm | 820 nm | 0.15

Source: patent publication US9201014B2, “Development of photostable near-IR cyanine dyes for in vivo imaging” (National University of Singapore, priority 2010, dated 2015)
